The structures appear in SMILES notation.

The values that follow come from US20220323427A1, “SOMATOSTATIN RECEPTOR TYPE 5 AGONIST FOR THE TREATMENT OF HYPERINSULINISM” (Crinetics Pharmaceuticals, Inc., priority 2021, published 2022).

The subject of the test is human pancreatic islets. The experiment in a line: Insulin secretion in perifused human islets. Type of test: cell-based. Particulars: for Effect on glucose- and tolbutamide-stimulated insulin secretion: G16.7 and G16.7+Tolb. Here is the method: The activity of Compound 1 on insulin and glucagon secretion in human pancreatic islets from three healthy adult donors (Prodo Labs, Aliso Viejo, Calif.) was evaluated using a perifusion system that enables dynamic insulin and glucagon measurements from the same islet preparation in response to different stimuli. Specifically, the effects on glucose-stimulated and sulfonylurea (tolbutamide)-stimulated insulin secretion and arginine-stimulated glucagon secretion were investigated and compared to those of a maximally effective concentration of diazoxide. Islets were collected in culture media (Prodo Labs #PIM-S001GMP) supplemented with 5% human AB serum (Prodo Labs #PIM-ABS001GMP), 1% glutamine-glutathione (Prodo Labs #PIM-G001GMP) and an antibiotic cocktail of amphotericin B, ciproflaxin and gentamicin (Prodo Labs #PIM-3X001GMP) and plated at a density of 1500-3000 islet equivalents (IEQ) in 10-cm nontreated tissue culture dishes (Thomas Scientific #1182M59). Islets were cultured at 37° C., 5% CO2 and 95% humidity for 20 h. Dynamic insulin secretion assays were performed using a perifusion system, Peri5 (Biorep Technologies, FL. Glucose (Boston BioProducts #BM-675) at 3 mM (G3) or 16.7 mM (G16.7), or glucose at 16.7 mM plus 100 μM tolbutamide (Sigma #T0891; G16.7+Tolb) were prepared in perifusion buffer, PB=[24 mM NaHCO3 (Fisher Scientific #S233-500), 120 mM NaCl (Spectrum Chemical #S0155), 4.8 mM KCl (Fisher Scientific #P217-500), 2.5 mM CaCl2 (Fisher Scientific #C614-500), 1.2 mM MgCl2 (Sigma #M8266), 10 mM HEPES (Gibco #15630-080) and 0.1% BSA (EMD Millipore #12675-100GM)]. Various concentrations of Compound 1 and diazoxide (Sigma #D9035) were prepared in G16.7 or in G16.7+Tolb. […] Insulin concentration was quantified using the commercially-available Mercodia Insulin ELISA (Mercodia #10-1113-10) kit. […] The optical density of each well was determined at 450 nm in a Tecan M1000Pro (Tecan, Switzerland) multiplate reader. Insulin concentrations were calculated by regression to the standard curve using GraphPad Prism (GraphPad, San Diego, Calif.).

For `C[C@H](NC(=O)c1cnc(C#N)c(-c2cc(F)cc(F)c2)c1N1CC[C@H](N)C1)C(F)(F)F` [Compound 1, 4-[(3S)-3-aminopyrrolidin-1-yl]-6-cyano-5-(3,5-difluorophenyl)-N-[(2S)-1,1,1-trifluoropropan-2-yl]pyridine-3-carboxamide], the “Effect on glucose- and tolbutamide-stimulated insulin secretion” value is, setting by setting: (0.1 μM) “intermediate effect”; (1 μM, both phases) “strongest inhibitory effect”. The “Insulin secretion in response to 16.7 mM glucose and tolbutamide” value (concentration dependent, islets from three healthy adult donors) is reported as “inhibited insulin secretion”.
